Patent US20260014125A1, “BICYCLIC-TYPE MAT2A INHIBITOR AND USE THEREOF” (HAIHE BIOPHARMA CO., LTD., priority 2022, published 2026)

Assays:
MAT2A = MAT2A (Homo sapiens (Human), UniProt P31153); assay: Biochemical test: inhibition of MAT2A enzyme activity (phosphate detection, OD620); conditions: MAT2A his-tag; 150 minutes enzymatic reaction
Text: Experimental principle: MAT2A can catalyze the conversion of L-methionine and ATP into SAM, inorganic phosphate, and inorganic diphosphate. By adding a chromogenic reagent to the enzymatic reaction system, the content of inorganic phosphates in a sample can be quantitatively detected, thereby characterizing the enzymatic activity of MAT2A.
Experimental material: Tris (Life Science #0497); BSA (Sigma #); MAT2A his-tag (BPS #71401-1); 384 well plate (Corning #3765); L-methionine (Admas #1100469); ATP (Sigma #A7699); MgCl2 (Sigma #M8266); KCl (Sigma #7447-40-7); Brij35 (Sigma #B4184); EDTA (Sigma #E1644)
1. 1×Assaybuffer (buffer composition: Tris, KCl, MgCl2, BSA, Brij35, and EDTA; the solvent was ultrapure water) was prepared. MAT2A his-tag enzyme solution (containing 1.3 μL of MAT2A enzyme and 998.7 μL of 1×Assaybuffer per 1000 μL) and substrate mixed solution (containing 5 μL of ATP, 1.3 μL of L-methionine, and 993.7 μL of 1×Assaybuffer per 1000 μL) were prepared using 1×AssayBuffer.
2. Preparation of compound concentration gradient: The test compound was tested with a starting concentration of 10 μM, and 10 equimolar concentrations were set according to a 3-fold dilution. Specifically, firstly, the compound was diluted into 10 different concentrations of series solutions in a 384 well plate (with final detection concentrations of 10, 3.33, 1.11, 0.37, 0.123, 0.041, 0.0137, 0.0046, 0.0015, and 0.0005 μM), and then 250 nL of the above series solutions was transferred to the 384 well reaction plate using an ultrasonic pipetting system Echo550 for later use. 250 nL of 100% DMSO was added into a negative control well and a positive control well, respectively. Double well test.
3. 15 μL of MAT2A his-tag enzyme solution was added into both the compound well and the positive control well; and 15 μL of 1×Assaybuffer was added into the negative control well.
4. The 384 well plate reaction plate was centrifuged at 1000 rpm for 60 seconds, shaken, mixed well, and incubated for 15 minutes. 10 μL of substrate mixed solution was added into each experimental well of the 384 well reaction plate to initiate the reaction.
5. The 384 well reaction plate was centrifuged at 1000 rpm for 60 seconds, shaken, mixed well, and incubated for 150 minutes.
6. 50 μL of enzyme reaction termination solution Biomol was added into all experimental wells of the 384 well reaction plate to terminate the reaction, centrifuged at 1000 rpm for 60 seconds, and incubated for 15 minutes. OD620 was read and data was processed.
Data analysis: the inhibition rate (%) of the compound was calculated and fitted to obtain the IC50 of the tested compound. Calculation method for compound inhibition rate: Compound inhibition rate (%)=(OD620_max−OD620_stample)/(OD620_max−OD620_min)×100, wherein OD620_stample was the absorbance value of the sample well; OD620 min was the absorbance value of the positive control well, indicating the reading of the wells without enzyme activity; and OD620_max was the absorbance value of the negative control well, indicating the reading of the well without compound inhibition.

KP-4 cells = assay: Human pancreatic cancer KP-4 cell activity inhibition test (CellTiter-Glo); assay type: cell-based; conditions: 5 days
Procedure: Experimental principle: after co-incubating the MAT2A inhibitor to be tested with KP-4 cells for a period of time, a cell viability measurement method based on ATP content is used to characterize the effect of the tested compound on cell viability.
Experimental material: KP-4 cells (JCRB #JCRB0182); IMDM (Gibco 912440061); fetal bovine serum (EXCELL #FND500); penicillin-streptomycin (Gibco #15140-122); 0.25% Typsin-EDTA (Gibco #252(101-072); DMSO (Sigma #D2650); 96 well plate (Corning #3610); CellTiter-Glo (Promega #G7571)
1. KP-4 cells were cultured in IMDM culture medium containing 10% e fetal bovine serum and 1% penicillin-streptomycin at 37° C. and 5% CO2 in a cell culture incubator. Only cells in logarithmic growth phase were used for subsequent experiments.
2. The cells in logarithmic growth phase were inoculated into a 96 well plate, with a seeding quantity of 500 cells per well, and incubated overnight in a cell culture incubator at 37′C and 5% CO2.
3. The compound was dissolved with DMSO, diluted with culture medium to 10 different concentrations (approximately […]), 3333.3, 1111.1, 370, 123, 41.2, 13.7, 4.6, 1.5, and 0.5 nM) before adding it to the cell plate, and cultured at 37° C. and 5% CO2 for 5 days.
4. CellTiter-Glo reagent was added, and an enzyme-linked immunosorbent assay reader was used to detect cell viability.
Data analysis: the inhibition rate (%) of the compound was calculated and fitted to obtain the IC50 of the tested compound. Calculation method for compound inhibition rate: Compound inhibition rate (%)=(Signal_max−Signal_sample)/(Signal_max−Signal_min)×100, wherein Signal_sample was the sample well reading, indicating the cell activity of the compound inhibition well; Signal_min was the positive control well reading, indicating the background activity without cells; and Signal_max was the negative control well reading, indicating the cell activity of the well without compound inhibition.

Chain of MAT2A (P31153 whole entry): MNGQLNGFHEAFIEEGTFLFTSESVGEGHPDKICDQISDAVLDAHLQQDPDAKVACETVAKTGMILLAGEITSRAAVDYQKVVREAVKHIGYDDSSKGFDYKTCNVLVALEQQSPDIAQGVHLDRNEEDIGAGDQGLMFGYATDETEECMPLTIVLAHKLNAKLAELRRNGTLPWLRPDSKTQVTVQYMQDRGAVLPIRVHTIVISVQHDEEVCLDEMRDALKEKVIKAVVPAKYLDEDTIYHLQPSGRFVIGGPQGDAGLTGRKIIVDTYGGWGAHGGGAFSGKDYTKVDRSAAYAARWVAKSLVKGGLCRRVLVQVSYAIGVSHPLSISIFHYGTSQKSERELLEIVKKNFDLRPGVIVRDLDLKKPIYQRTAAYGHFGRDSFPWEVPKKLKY

IC50 (MAT2A) | IC50 (KP-4 cells; Homo sapiens, 120 h) | Compound | IC50 (KP-4 cells)
12.1 nM | 11.7 nM | COc1ccc(-c2c(OCC(F)(F)F)c3cn[nH]c3n(-c3ccc4nn(C)cc4c3)c2=O)cc1 [Compound 12] | 
15.3 nM | 159 nM | CCOc1c(-c2ccc(OC)cc2)c(=O)n(-c2ccc3ncn(C)c3c2)c2[nH]ncc12 [Compound 15] | 
13.9 nM | 18 nM | CCOc1c(-c2ccc(F)cc2)c(=O)n(-c2ccc3nn(C)cc3c2)c2[nH]ncc12 [Compound 17] | 
13.5 nM | 659 nM | CCOc1c(-c2ccc(OC(F)F)cc2)c(=O)n(-c2ccc3nncn3c2)c2[nH]ncc12 [Compound 26] | 
17.1 nM | 6.8 nM | Cn1cc2cc(-n3c(=O)c(-c4ccc(OC(F)F)cc4)c(OCC(F)(F)F)c4cn[nH]c43)ccc2n1 [Compound 27] | 
15 nM | 5.2 nM | Cn1cc2cc(-n3c(=O)c(-c4ccc(Cl)cc4)c(OCC(F)(F)F)c4cn[nH]c43)ccc2n1 [Compound 28] | 
12.3 nM | 13.5 nM | COc1ccc(-c2c(OCC(F)(F)F)c3cn[nH]c3n(-c3ccc4nn(C)cc4c3)c2=O)cn1 [Compound 29] | 
14.9 nM | 41.5 nM | CCOc1c(-c2ccc(Cl)cc2)c(=O)n(-c2ccc3ncn(C)c3c2)c2[nH]ncc12 [Compound 33] | 
17 nM | 39.2 nM | Cn1cnc2ccc(-n3c(=O)c(-c4ccc(Cl)cc4)c(OCC(F)(F)F)c4cn[nH]c43)cc21 [Compound 36] | 
11 nM | 36 nM | CCOc1c(-c2ccc(OC(F)F)cc2)c(=O)n(-c2ccc3nn(C4COC4)cc3c2)c2[nH]ncc12 [Compound 37] | 
18.6 nM | 149 nM | CCOc1c(-c2ccc(OC(F)F)cc2)c(=O)n(-c2ccc3nn(C4CNC4)cc3c2)c2[nH]ncc12 [Compound 38] | 
12.7 nM | 11.4 nM | CCOc1c(-c2ccc(OC(F)F)cc2)c(=O)n(-c2ccc3nn(C)cc3n2)c2[nH]ncc12 [Compound 41] | 
10.5 nM | 89.1 nM | CCOc1c(-c2ccc(OC(F)F)cc2)c(=O)n(-c2ccc3nn(C)cc3c2)c2nn(C)cc12 [Compound 45] | 
15.3 nM | 60.9 nM | CCOc1c(-c2ccc(C(F)(F)F)nc2)c(=O)n(-c2ccc3nn(C)cc3c2)c2[nH]ncc12 [Compound 46] | 
14.8 nM | 6.6 nM | CCOc1c(-c2ccc(C3CC3)nc2)c(=O)n(-c2ccc3nn(C)cc3c2)c2[nH]ncc12 [Compound 47] | 
17.9 nM | 57.8 nM | Cn1cc2cc(-n3c(=O)c(-c4ccc(F)cc4)c(OCC(F)(F)F)c4cn[nH]c43)ccc2n1 [Compound 49] | 
13.6 nM | 21.4 nM | Cn1cc2cc(-n3c(=O)c(-c4ccc(Cl)cc4)c(OCC4CC4)c4cn[nH]c43)ccc2n1 [Compound 50] | 
15.7 nM | 35.7 nM | Cn1cc2cc(-n3c(=O)c(-c4ccc(F)cc4)c(OCC4CC4)c4cn[nH]c43)ccc2n1 [Compound 51] | 
17.6 nM | 9 nM | Cc1ccc(-c2c(OCC(F)(F)F)c3cn[nH]c3n(-c3ccc4nn(C)cc4c3)c2=O)cn1 [Compound 52] | 

IC50 (MAT2A) | IC50 (KP-4 cells; Homo sapiens, 120 h) | Compound | IC50 (KP-4 cells)
16 nM | 19.5 nM | Cn1cc2cc(-n3c(=O)c(-c4ccc(C5CC5)nc4)c(OCC(F)(F)F)c4cn[nH]c43)ccc2n1 [Compound 53] | 
12.9 nM | 19.2 nM | CCOc1c(-c2ccc(Br)cc2)c(=O)n(-c2ccc3nn(C)cc3c2)c2[nH]ncc12 [Compound 54] | 
16.5 nM | 2.5 nM | CCOc1c(-c2ccc(Cl)cc2)c(=O)n(-c2ccc3nn(C)cc3c2)c2cn[nH]c12 [Compound 55] | 
14.8 nM | 3.5 nM | CCCOc1c(-c2ccc(Cl)nc2)c(=O)n(-c2ccc3nn(C)cc3c2)c2[nH]ncc12 [Compound 58] | 
18 nM | 180 nM | CCOc1c(-c2ccc(Cl)cn2)c(=O)n(-c2ccc3nn(C)cc3c2)c2[nH]ncc12 [Compound 62] | 
18.2 nM | 2.4 nM | Cn1cc2cc(-n3c(=O)c(-c4ccc(Cl)cc4)c(NCC(F)(F)F)c4cn[nH]c43)ccc2n1 [Compound 63] | 
13.7 nM | 12.7 nM | CCOc1c(-c2ccc(Cl)cc2)c(=O)n(-c2ccc3nn(C)c(C)c3c2)c2[nH]ncc12 [Compound 66] | 
20.7 nM | 25 nM | CCOc1c(-c2ccc(Cl)cc2)c(=O)n(-c2ccc3nn(C)cc3n2)c2[nH]ncc12 [Compound 84] | 
18.2 nM | 32 nM | CCOc1c(-c2ccc(Cl)cc2)c(=O)n(-c2ccc3nn(C4COC4)cc3c2)c2[nH]ncc12 [Compound 90] | 
19.1 nM | 279 nM | CCOc1c(-c2ccc(C(F)(F)F)nc2)c(=O)n(-c2ccc3nn(C4COC4)cc3c2)c2[nH]ncc12 [Compound 92] | 
16.2 nM | 1.5 nM | O=c1c(-c2ccc(Cl)cc2)c(OCC(F)(F)F)c2cn[nH]c2n1-c1ccc2nn(C3COC3)cc2c1 [Compound 93] | 
17.6 nM | 32 nM | Cn1cc2nc(-n3c(=O)c(-c4ccc(Cl)cc4)c(OCC4CC4)c4cn[nH]c43)ccc2n1 [Compound 96] | 
16.1 nM | 87.8 nM | Cn1cc2nc(-n3c(=O)c(-c4ccc(Cl)cc4)c(OCC(F)(F)F)c4cn[nH]c43)ccc2n1 [Compound 99] | 
20.6 nM | 41.1 nM | CCOc1c(-c2ccc(C(F)(F)F)nc2)c(=O)n(-c2ccc3nn(CC)cc3c2)c2[nH]ncc12 [Compound 102] | 
15.7 nM | 8.3 nM | Cn1cc2cc(-n3c(=O)c(-c4ccc(C(F)(F)F)nc4)c(OCC4CC4)c4cn[nH]c43)ccc2n1 [Compound 104] | 
19.6 nM | 59 nM | CCNc1c(-c2ccc(Cl)cc2)c(=O)n(-c2ccc3nn(C)cc3n2)c2[nH]ncc12 [Compound 105] | 
28.8 nM | 234 nM | CCNc1c(-c2ccc(C(F)(F)F)nc2)c(=O)n(-c2ccc3nn(C)cc3c2)c2[nH]ncc12 [Compound 106] | 
16.7 nM | 73.2 nM | Cn1cc2nc(-n3c(=O)c(-c4ccc(Cl)cc4)c(NCC4CC4)c4cn[nH]c43)ccc2n1 [Compound 107] | 
17.3 nM | 66.7 nM | Cn1cc2cc(-n3c(=O)c(-c4ccc(C(F)(F)F)nc4)c(NCC4CC4)c4cn[nH]c43)ccc2n1 [Compound 108] | 

Compound | IC50 (MAT2A) | IC50 (KP-4 cells; Homo sapiens, 120 h) | IC50 (KP-4 cells)
CCOc1c(-c2ccc(OC(F)F)cc2)c(=O)n(-c2ccc3nn(CC)cc3c2)c2[nH]ncc12 [Compound 19] | 16.6 nM |  | 7.4 nM
CCOc1c(-c2ccc(OC(F)F)cc2)c(=O)n(-c2ccc3nn(CCO)cc3c2)c2[nH]ncc12 [Compound 20] | 9.8 nM |  | 224 nM
CCOc1c(-c2ccc(OC(F)F)cc2)c(=O)n(-c2ccc3ncn(C)c3c2)c2[nH]ncc12 [Compound 22] | 16 nM |  | 28.1 nM
